Assay results published in US5041238A, “o,o'-Bridged oligophenylene laser dyes, dyestuff lasers and methods of lasing therewith” (Exciton Chemical Company, priority 1988, dated 1991).

How the values were obtained:
[1] = Solubilities of o,o'-bridged oligophenylenes at 21° C. in laser solvents; format: physicochemical; conditions: comparison in laser solvents
Description: SOLUBILITIES OF o,o'-BRIDGED OLIGOPHENYLENES AT 21° C.

[2] = Fluorescence emission spectrum (Perkin-Elmer MPF-44A); format: physicochemical; conditions: for Fluorescence peak 1, intensity / Fluorescence peak 1, wavelength / Fluorescence peak 2, intensity / Fluorescence peak 2, wavelength / Fluorescence emission peak 1, intensity / Fluorescence emission peak 1, wavelength / Fluorescence emission peak 2, intensity / Fluorescence emission peak 2, wavelength: slits 2 nm; for Fluorescence emission peak 1, intensity / Fluorescence emission peak 1, wavelength / Fluorescence emission peak 2, intensity / Fluorescence emission peak 2, wavelength: excitation 265 nm
Description: (§1) The fluorescence emission spectrum for the dye 9,9-dipropylfluorene as illustrated in FIG. 1 was detected on a Perkin-Elmer MPF-44A, the slits were set at 2 nm and the excitation light was at 265 nm. The Fluorescence Quantum Efficiency (FQE) was about the same as that of fluorene - 55%; and the fluorescence emission peaks at 306 nm(intensity 86) and 316 nm(intensity 67) were also similar to those of fluorene [the fluorescence emission spectrum for fluorene as illustrated in FIG. 5 was also detected on a Perkin-Elmer MPF-44A, the slits were set at 2 nm and the excitation light was at 265 nm and the fluorescence emission peaks for fluorene are at 303 nm(intensity 93) and 311 nm(intensity 73)].
This dye had two fluorescence peaks of almost equal intensity at 360 nm(intensity 33) and 378 nm(intensity 28) as illustrated in FIG. 2. […] The fluorescence emission spectrum of the dye 9,9,9',9'-tetrapropyl-2,2'-bifluorene was detected on a Perkin-Elmer MPF-44A, the slits were set at 2 nm and the excitation light was at 331 nm.
(§2) This dye had fluorescence peaks at 324 nm(intensity 90) and 338 nm(intensity 76) and a reported fluorescence quantum yield of 100% in cyclohexane as illustrated in FIG. 3. […] The fluorescence emission spectrum for the dye 3-phenyldibenzofuran as illustrated in FIG. 3 was detected on a Perkin-Elmer MPF-44A, the slits were set at 2 nm and the excitation light was at 301 nm.
The dye, 3,3'-bi(dibenzofuran), was prepared in accordance with the process disclosed in H. O. Wirth, G. Waese and W. Kern: Synthese Und Eigenschaften Von: Oxydo-p-oligophenylenen. Makromol. Chem. 86: 139(1965) which is incorporated herein in its entirety by reference, and was purified by extraction from Brockmann Activity I alumina with chloroform in an Ace-Kauffman column to give a white solid, mp 249.5°-250.5° C. (lit.mp 252.5° C.). This dye had two fluorescence peaks of almost equal intensity at 353 nm(intensity 47) and 369 nm(intensity 30) in cyclohexane as illustrated in FIG. 4.

[3] = Fluorescence quantum efficiency / quantum yield; format: physicochemical
Description: as §1, §2

[4] = cyclohexane; cited from earlier work
[5] = Violet fluorescence in alcohols; format: physicochemical
Description: The dye, 9,9'-diethyl-2,2'-bicarbazole, was prepared from the above intermediate as follows. To a mixture of 1.10 g (4 mMol) of 2-bromo-9-ethylcarbazole and 0.096 g of cut magnesium ribbon in 4 ml of refluxing ether was added 50 microliters of 1,2-dibromoethane. Refluxing was continued for 18 hrs. The solution was cooled and 386 microliters (0.455 g) of cis-1,4-dichloro-2-butene was added. As the solution was returned to reflux, a precipate appeared. After three hours the mixture was filtered. The solid was recrystallized from 2-methoxyethanol with a hot filtration to give 0.124 g (12% of theory) of product, mp 239°-40° C.

c1ccc2c(c1)oc1cc(-c3ccc4c(c3)oc3ccccc34)ccc12 [3,3'-bi(dibenzofuran)]
Solubility compared with another dye (words) [1]: greater than that of 2,2'-bifluorene | Fluorescence emission spectrum compared with dye of Example 2 [2]: almost superimposable on that of the dye discussed in Example 2 | Fluorescence peak 1, intensity ([2]; cyclohexane, excitation 323 nm): 47 | Fluorescence peak 1, wavelength ([2]; cyclohexane, excitation 323 nm): 353 nm | Fluorescence peak 2, intensity ([2]; cyclohexane, excitation 323 nm): 30 | Fluorescence peak 2, wavelength ([2]; cyclohexane, excitation 323 nm): 369 nm

c1ccc(-c2ccc3c(c2)oc2ccccc23)cc1 [3-phenyldibenzofuran]
FQE in methanol compared with cyclohexane [3]: the same in methanol as in cyclohexane | Solubility compared with another dye (words) [1]: much greater than that of p-terphenyl | Solubility compared with another dye (words) ([1]; listed as 3phenyldibenzofuran): much more soluble in methanol, 50% ethanol, 95% ethanol and absolute | Fluorescence peak 1, intensity ([2]; cyclohexane, excitation 301 nm): 90 | Fluorescence peak 1, wavelength ([2]; cyclohexane, excitation 301 nm): 324 nm | Fluorescence peak 2, intensity ([2]; cyclohexane, excitation 301 nm): 76 | Fluorescence peak 2, wavelength ([2]; cyclohexane, excitation 301 nm): 338 nm | Fluorescence quantum yield (reported) [4]: 100%

CCn1c2ccccc2c2ccc(-c3ccc4c5ccccc5n(CC)c4c3)cc21 [9,9'-diethyl-2,2'-bicarbazole]
Violet fluorescence in alcohols compared with compounds of Examples 2 and 4 [5]: brighter violet fluorescence in alcohols than the compounds of Examples 2 and 4

CCCC1(CCC)c2ccccc2-c2ccc(-c3ccc4c(c3)C(CCC)(CCC)c3ccccc3-4)cc21 [9,9,9',9'-tetrapropyl-2,2'-bifluorene]
Solubility compared with another dye (words) [1]: more soluble than 2,2'-bifluorene in solvents | Fluorescence peak 1, intensity ([2]; excitation 331 nm): 33 | Fluorescence peak 1, wavelength ([2]; excitation 331 nm): 360 nm | Fluorescence peak 2, intensity ([2]; excitation 331 nm): 28 | Fluorescence peak 2, wavelength ([2]; excitation 331 nm): 378 nm

CCCC1(CCC)c2ccccc2-c2ccccc21 [9,9-dipropylfluorene]
Fluorescence emission peak 1, intensity [2]: 86 | Fluorescence emission peak 1, wavelength [2]: 306 nm | Fluorescence emission peak 2, intensity [2]: 67 | Fluorescence emission peak 2, wavelength [2]: 316 nm

c1ccc2c(c1)Cc1ccccc1-2 [fluorene, reference compound]
Fluorescence emission peak 1, intensity [2]: 93 | Fluorescence emission peak 1, wavelength [2]: 303 nm | Fluorescence emission peak 2, intensity [2]: 73 | Fluorescence emission peak 2, wavelength [2]: 311 nm
